Molecules are shown by their SMILES. Where only a bound is given, the exact number is not on record here.

HCV RNA-dependent RNA polymerase NS5B (Δ21), sequence (P26663 2420-2989, stated change not applied): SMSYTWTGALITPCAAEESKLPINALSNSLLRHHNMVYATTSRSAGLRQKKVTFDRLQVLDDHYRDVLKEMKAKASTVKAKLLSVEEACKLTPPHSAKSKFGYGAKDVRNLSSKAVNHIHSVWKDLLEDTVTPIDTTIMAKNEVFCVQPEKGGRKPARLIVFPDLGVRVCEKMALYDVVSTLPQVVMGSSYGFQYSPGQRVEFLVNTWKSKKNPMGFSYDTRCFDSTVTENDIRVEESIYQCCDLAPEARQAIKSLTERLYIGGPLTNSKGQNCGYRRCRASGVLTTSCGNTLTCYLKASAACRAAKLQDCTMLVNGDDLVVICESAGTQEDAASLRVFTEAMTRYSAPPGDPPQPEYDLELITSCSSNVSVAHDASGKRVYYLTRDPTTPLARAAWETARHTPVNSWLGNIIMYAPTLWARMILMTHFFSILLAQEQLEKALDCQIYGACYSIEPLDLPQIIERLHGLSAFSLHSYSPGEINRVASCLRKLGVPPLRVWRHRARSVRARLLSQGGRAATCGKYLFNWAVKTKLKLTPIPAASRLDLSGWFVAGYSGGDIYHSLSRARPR

The first assay concerns the target HCV RNA-dependent RNA polymerase NS5B (Δ21) (Hepatitis C virus genotype 1b, UniProt P26663). Description: Assay for HCV RNA-dependent RNA polymerase activity (SPA, [3H]-GTP incorporation). Type of assay: biochemical. The following applies: read-out: Δ21 Activity (IC50 μM); 50 nM NS5B (Δ21), class symbols. Put shortly:
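NS5B (Δ21), 50 nM, was incubated 3 h at room temperature with biotinylated oligoG12/polyC template, 5 μM GTP plus [3H]-GTP, in HEPES pH 7.3 with MgCl2 and NaCl. [3H]-GTP incorporation was read by streptavidin SPA. IC50 came from single experiments across 11 two-fold dilutions (0.05–50 μM).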
Consider `CC(C)(C)c1ccc(S(=O)(=O)Nc2cc(C(=O)N[C@H]3CCCC[C@@H]3OCc3ccccc3)n(CC(=O)N[C@H]3CCCC[C@@H]3OCc3ccccc3)n2)cc1` [Compound 87], for which the IC50 (in general, the point on the concentration scale where inhibition reaches its midpoint) fell in the range of 0.1 to 1 µM. For `CC(C)(NC(=O)c1cc(C(=O)N[C@H]2CCCC[C@@H]2OCc2ccccc2)n(CC(=O)N[C@H]2CCCC[C@@H]2OCc2ccccc2)n1)c1ccccc1` [Compound 52], the IC50 lay in the range of 0.1 to 1 µM. Same read-out and setting: then `O=C(Cn1nc(C(=O)NCCCCCC(=O)ON2C(=O)CCC2=O)cc1C(=O)N[C@H]1CCCC[C@@H]1OCc1ccccc1)N[C@H]1CCCC[C@@H]1OCc1ccccc1` [Compound 151], with 0.1 to 1 µM; and `O=C(Cn1nc(C(=O)NCCCc2ccccc2)cc1C(=O)N[C@H]1CCCC[C@@H]1OCc1ccccc1)N[C@H]1CCCC[C@@H]1OCc1ccccc1` [Compound 104], with 0.1 to 1 µM. Same read-out and setting: then `O=C(Cn1nc(C(=O)NCC2CCCCC2)cc1C(=O)N[C@H]1CCCC[C@@H]1OCc1ccccc1)N[C@H]1CCCC[C@@H]1OCc1ccccc1` [Compound 137], with 0.1 to 1 µM; and `COc1ccccc1NC(=O)c1cc(C(=O)N[C@H]2CCCC[C@@H]2OCc2ccccc2)n(CC(=O)N[C@H]2CCCC[C@@H]2OCc2ccccc2)n1` [Compound 73], with 0.1 to 1 µM; and `O=C(Cn1nc(NS(=O)(=O)c2ccc(Br)c(Br)c2)cc1C(=O)N[C@H]1CCCC[C@@H]1OCc1ccccc1)N[C@H]1CCCC[C@@H]1OCc1ccccc1` [Compound 58], with 0.1 to 1 µM. In the case of `O=C(Cn1nc(NS(=O)(=O)c2cccc(Cl)c2)cc1C(=O)N[C@H]1CCCC[C@@H]1OCc1ccccc1)N[C@H]1CCCC[C@@H]1OCc1ccccc1` [Compound 80], the IC50 lay in the range of 0.1 to 1 µM. Take `CC(CCc1ccccc1)NC(=O)c1cc(C(=O)N[C@H]2CCCC[C@@H]2OCc2ccccc2)n(CC(=O)N[C@H]2CCCC[C@@H]2OCc2ccccc2)n1` (some centres unmarked) [Compound 101]: the IC50 is 0.1 to 1 µM. Consider `O=C(Cn1nc(CO)cc1C(=O)N[C@H]1CCCC[C@@H]1OCc1ccccc1)N[C@H]1CCCC[C@@H]1OCc1ccccc1` [Compound 161], for which the IC50 lay within 0.1 to 1 µM. Same read-out and setting: for `CS(=O)(=O)NC(=O)c1cc(C(=O)N[C@H]2CCCC[C@@H]2OCc2ccccc2)n(CC(=O)N[C@H]2CCCC[C@@H]2OCc2ccccc2)n1` [Compound 155] the value was 0.1 to 1 µM. `O=C(Cn1nc(C(=O)NC2CCc3ccccc32)cc1C(=O)N[C@H]1CCCC[C@@H]1OCc1ccccc1)N[C@H]1CCCC[C@@H]1OCc1ccccc1` (some centres unmarked) [Compound 107]: the IC50 is 0.1 to 1 µM.

In the case of `O=C(Cn1nc(NS(=O)(=O)c2ccc(F)cc2Cl)cc1C(=O)N[C@H]1CCCC[C@@H]1OCc1ccccc1)N[C@H]1CCCC[C@@H]1OCc1ccccc1` [Compound 71], the IC50 was 0.1 to 1 µM.

For `O=C(Cn1nc(C(=O)N2CCc3ccccc3C2)cc1C(=O)N[C@H]1CCCC[C@@H]1OCc1ccccc1)N[C@H]1CCCC[C@@H]1OCc1ccccc1` [Compound 51], the IC50 fell in the range of 0.1 to 1 µM. As for `CN(C(=O)c1cc(C(=O)O)nn1CC(=O)N[C@H]1CCCC[C@@H]1OCc1ccccc1)[C@H]1CCCC[C@@H]1OCc1ccccc1` [Compound 133], the half-maximal inhibitory concentration (IC50) is 0.1 to 1 µM.

As for `O=C(Cn1nc(C(=O)NC2CCCC2)cc1C(=O)N[C@H]1CCCC[C@@H]1OCc1ccccc1)N[C@H]1CCCC[C@@H]1OCc1ccccc1` [Compound 128], the IC50 lay within 0.1 to 1 µM. Same read-out and setting: for `CCOC(=O)c1nc(C(=O)N[C@H]2CCCC[C@@H]2OCc2ccccc2)n(CC(=O)N[C@H]2CCCC[C@@H]2OCc2ccccc2)n1` [Compound 141] the value was 0.1 to 1 µM; for `O=C(Cn1nc(C(=O)NC2CC2)cc1C(=O)N[C@H]1CCCC[C@@H]1OCc1ccccc1)N[C@H]1CCCC[C@@H]1OCc1ccccc1` [Compound 122], 0.1 to 1 µM; for `CN(C)c1cccc2c(S(=O)(=O)NCCNC(=O)c3cc(C(=O)N[C@H]4CCCC[C@@H]4OCc4ccccc4)n(CC(=O)N[C@H]4CCCC[C@@H]4OCc4ccccc4)n3)cccc12` [Compound 64], 0.1 to 1 µM.

Take `CCOC(=O)c1cc(C(=O)N[C@H]2CCCC[C@@H]2OCc2ccccc2)n(CC(=O)N[C@H]2CCCC[C@@H]2OCc2ccccc2)n1` [Compound 49]: the IC50 was 0.1 to 1 µM. On to `CC(C)S(=O)(=O)Nc1cc(C(=O)N[C@H]2CCCC[C@@H]2OCc2ccccc2)n(CC(=O)N[C@H]2CCCC[C@@H]2OCc2ccccc2)n1` [Compound 78], for which the IC50 is 0.1 to 1 µM. With `O=C(Cn1nc(NS(=O)(=O)c2cc(Cl)ccc2Cl)cc1C(=O)N[C@H]1CCCC[C@@H]1OCc1ccccc1)N[C@H]1CCCC[C@@H]1OCc1ccccc1` [Compound 96], the IC50 was in the range of 0.1 to 1 µM.

`CC(NC(=O)c1cc(C(=O)N[C@H]2CCCC[C@@H]2OCc2ccccc2)n(CC(=O)N[C@H]2CCCC[C@@H]2OCc2ccccc2)n1)c1ccccc1` (some centres unmarked) [Compound 95]: the IC50 was in the range of 0.1 to 1 µM.

Staying with this assay, now noted: Δ21 Activity (IC50 μM), 50 nM NS5B (Δ21), class symbols.
For `O=C(Cn1nc(C(=O)Nc2ccc(-c3ccccc3)cc2)cc1C(=O)N[C@H]1CCCC[C@@H]1OCc1ccccc1)NC1CCCC[C@@H]1OCc1ccccc1` (some centres unmarked) [Compound 203], the concentration for half-maximal inhibition (IC50) is > 1 µM. Turning to `COC(=O)CCCCCNC(=O)CCCCCNC(=O)c1cc(C(=O)N[C@H]2CCCC[C@@H]2OCc2ccccc2)n(CC(=O)N[C@H]2CCCC[C@@H]2OCc2ccccc2)n1` [Compound 184], the IC50 was > 1 µM. As for `CCOC(=O)c1cc(C(=O)N[C@H]2CCCC[C@@H]2OCc2ccccc2)n(CC(=O)NC2CCCC[C@@H]2NCc2ccccc2)n1` (some centres unmarked) [Compound 199], the IC50 is > 1 µM.

`CCOC(=O)c1cc(C(=O)N(C)[C@H]2CCCC[C@@H]2OCc2ccccc2)n(CC(=O)N[C@H]2CCCC[C@@H]2OCc2ccccc2)n1` [Compound 181]: the IC50 is > 1 µM.

Regarding `O=C(Cn1nc(NS(=O)(=O)c2ccc(Br)cc2)cc1C(=O)N[C@H]1CCCC[C@@H]1OCc1ccccc1)N[C@H]1CCCC[C@@H]1OCc1ccccc1` [Compound 13], the IC50 was < 0.05 µM. Still for that read-out and setting: for `Cc1ccc(OCc2ccccc2)c(NC(=O)c2cc(-c3nnn[nH]3)nn2CC(=O)N[C@H]2CCCC[C@@H]2OCc2ccccc2)c1` [Compound 1] the value was < 0.05 µM; for `CC(O)(c1ccc(Cl)cc1)c1cc(C(=O)N[C@H]2CCCC[C@@H]2OCc2ccccc2)n(CC(=O)N[C@H]2CCCC[C@@H]2OCc2ccccc2)n1` (some centres unmarked) [Compound 180], > 1 µM. Still for that read-out and setting: for `O=C(Cn1nc(C(=O)Nc2nnn[nH]2)cc1C(=O)Nc1ccccc1OCc1ccccc1)N[C@H]1CCCC[C@@H]1OCc1ccccc1` [Compound 20] the value was 0.05 to 0.1 µM; for `O=C(Cn1nc(C(=O)O)cc1C(=O)Nc1cc(Cl)ccc1OCC1CCCCC1)N[C@H]1CCCC[C@@H]1OCc1ccccc1` [Compound 3], < 0.05 µM; for `Cc1cc(C(=O)N[C@H]2CCCC[C@@H]2OCc2ccccc2)n(CC(=O)N[C@H]2CCCC[C@@H]2OCc2ccccc2)n1` [Compound 175], > 1 µM. For `Cc1ccc(OCn2nc(C)cc2C)c(NC(=O)c2cc(C(=O)O)nn2CC(=O)N[C@H]2CCCC[C@@H]2OCc2ccccc2)c1` [Compound 208], the IC50 is > 1 µM.

Consider `Cc1ccc(OCC2CCCC2)c(NC(=O)c2cc(C(=O)O)nn2CC(=O)N[C@H]2CCCC[C@@H]2OCc2ccccc2)c1` [Compound 2], for which the IC50 was < 0.05 µM.

On to `O=C(Cn1nc(C(=O)NC2CCN(Cc3ccccc3)CC2)cc1C(=O)N[C@H]1CCCC[C@@H]1OCc1ccccc1)N[C@H]1CCCC[C@@H]1OCc1ccccc1` [Compound 192], for which the half-maximal inhibitory concentration (IC50) is > 1 µM. Same read-out and setting: for `Cc1ccc(OCC2CCCCC2)c(NC(=O)c2cc(C(=O)NC#N)nn2CC(=O)N[C@H]2CCCC[C@@H]2OCc2ccccc2)c1` [Compound 4] the value was < 0.05 µM; for `Cc1ccc(OCc2ccccc2)c(NC(=O)c2cc(NS(=O)(=O)c3ccc(Cl)cc3)nn2CC(=O)N[C@H]2CCCC[C@@H]2OCc2ccccc2)c1` [Compound 44], 0.05 to 0.1 µM. On the same count and under the same terms, for `CCOC(=O)c1cc(C(=O)N[C@H]2CCCC[C@@H]2OCc2ccccc2)n(CC(=O)Nc2ccc3c(c2)OCO3)n1` [Compound 193] the value was > 1 µM; for `Nc1ccccc1Oc1ccccc1CNC(=O)c1cc(C(=O)O)nn1CC(=O)N[C@H]1CCCC[C@@H]1OCc1ccccc1` [Compound 209], > 1 µM. `O=C(Cn1nc(C(=O)O)cc1C(=O)Nc1ccccc1OCc1ccccc1)N[C@H]1CCCC[C@@H]1OCc1ccccc1` [Compound 39] had an IC50 of 0.05 to 0.1 µM. Take `O=C(Cn1nc(C(=O)NCCCN2CCCC2=O)cc1C(=O)N[C@H]1CCCC[C@@H]1OCc1ccccc1)N[C@H]1CCCC[C@@H]1OCc1ccccc1` [Compound 168]: the IC50 was > 1 µM. With `N#CNC(=O)c1cc(C(=O)N[C@H]2CCCC[C@@H]2OCc2ccccc2)n(CC(=O)N[C@H]2CCCC[C@@H]2OCc2ccccc2)n1` [Compound 15], the IC50 is < 0.05 µM. For the molecule `O=C(Cn1nc(NS(=O)(=O)c2ccccc2Br)cc1C(=O)N[C@H]1CCCC[C@@H]1OCc1ccccc1)N[C@H]1CCCC[C@@H]1OCc1ccccc1` [Compound 32], the IC50 fell in the range of 0.05 to 0.1 µM.

Molecule `Cc1ccc(OCC2CCCC2)c(NC(=O)Cn2nc(C(=O)O)cc2C(=O)N[C@H]2CCCC[C@@H]2OCc2ccccc2)c1` [Compound 34] returned an IC50 of 0.05 to 0.1 µM.

Consider `CN(C)S(=O)(=O)Nc1cc(C(=O)N[C@H]2CCCC[C@@H]2OCc2ccccc2)n(CC(=O)N[C@H]2CCCC[C@@H]2OCc2ccccc2)n1` [Compound 45], for which the IC50 lay in the range of 0.05 to 0.1 µM.

The same assay, now with this note: Δ21 Activity (IC50 μM), 50 nM NS5B (Δ21), numeric values.
`O=C(Cn1nc(C(=O)O)cc1C(=O)Nc1cc(C(F)(F)F)ccc1OCc1ccccc1)N[C@H]1CCCC[C@@H]1OCc1ccccc1` [drawing 253] returned an IC50 of 0.041 µM.

The molecule `Cc1ccc(OCC2CCCCC2)c(NC(=O)c2cc(C(=O)NC#N)nn2CC(=O)N[C@H]2CCCC[C@@H]2OCc2ccccc2)c1` [drawing 243] registered an IC50 of 0.037 µM. On the same count and under the same terms, then `O=C(Cn1nc(NS(=O)(=O)c2ccc(Br)cc2)cc1C(=O)N[C@H]1CCCC[C@@H]1OCc1ccccc1)N[C@H]1CCCC[C@@H]1OCc1ccccc1` [drawing 252], with 0.041 µM. As for `Cc1ccc(OCC2CCCC2)c(NC(=O)c2cc(C(=O)O)nn2CC(=O)N[C@H]2CCCC[C@@H]2OCc2ccccc2)c1` [drawing 241], the IC50 amounted to 0.023 µM.

The values above are taken from patent US7425640B2, “Substituted 5-carboxyamide pyrazoles and [1,2,4]triazoles as antiviral agents” (priority 2004, dated 2008).
